EC50 and IC50 data for 6 compounds are collected here from patent publication US20140155415A1, “BENZ[…] BENZODIOXINE COMPOUNDS THAT INTERACT WITH G[…] FOR THE TREATMENT OF DIABETES” (priority 2011, published 2014).

The term EC50 denotes the concentration that produces a half-maximal response. A lower EC50 goes with an effect from little substance. For orientation: IC50 means the concentration that inhibits the measured activity by half.

Experiment [1] deals with T1, GK-GKRP (glucokinase / glucokinase regulatory protein) (Homo sapiens, UniProt Q14397).
T1 sequence (Q14397 1-625): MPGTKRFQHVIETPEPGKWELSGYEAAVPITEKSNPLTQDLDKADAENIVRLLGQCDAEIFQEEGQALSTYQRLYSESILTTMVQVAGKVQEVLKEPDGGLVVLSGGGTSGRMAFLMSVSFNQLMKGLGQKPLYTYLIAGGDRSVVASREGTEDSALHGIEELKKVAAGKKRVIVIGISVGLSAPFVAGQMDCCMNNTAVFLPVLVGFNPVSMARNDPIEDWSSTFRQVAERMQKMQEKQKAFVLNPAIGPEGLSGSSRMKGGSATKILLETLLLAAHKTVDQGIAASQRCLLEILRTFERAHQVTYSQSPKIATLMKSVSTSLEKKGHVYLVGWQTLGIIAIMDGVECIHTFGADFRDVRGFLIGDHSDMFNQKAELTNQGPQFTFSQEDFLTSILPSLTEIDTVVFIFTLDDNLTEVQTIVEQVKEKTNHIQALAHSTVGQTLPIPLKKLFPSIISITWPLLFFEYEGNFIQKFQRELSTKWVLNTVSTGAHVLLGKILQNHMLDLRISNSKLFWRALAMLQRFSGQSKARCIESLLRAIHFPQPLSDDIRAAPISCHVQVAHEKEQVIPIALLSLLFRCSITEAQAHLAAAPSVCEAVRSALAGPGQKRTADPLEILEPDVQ
Description: GKRP LC MS/MS Biochemical Assay (LCMS/MS). Particulars: formation of 13C-glucose-6-phosphate from 13C-glucose by LC MS/MS, human His-hepatic GK, fructose-6-phosphate. A digest of the protocol:
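Human His-tagged hepatic GK (30 nM working stock, 5×) with GKRP in 50 mM Tris pH 7.5, 4 mM MgCl2, 6% DMSO; compound preincubated 30 min, then GK added for 30 min at room temperature. Acetonitrile-stopped; 13C-glucose-6-phosphate formed from 13C-glucose quantified by LC MS/MS.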

The target in experiment [2] is T2, GK-GKRP (interaction between glucokinase and glucokinase regulatory protein) (Homo sapiens, UniProt Q14397).
T2 construct: made in house; host or cells: GKRP: baculovirus system
T2 sequence (Q14397 1-625): T1 sequence (Q14397 1-625)
Description: GK-GKRP Binding Assay (Binding), AlphaScreen. Particulars: avi-tagged GKRP, GK-fluorescein, AlphaScreen beads, 1 μM sorbitol-6-phosphate; read-out: GK-GKRP IC50 (Binding). A digest of the protocol: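 Biotinylated, C-terminally avi-tagged human GKRP was preincubated 20 min at room temperature with compound, then fluorescein-labelled human hepatic GK was added (6 nM in the added buffer). The mix was incubated 2 h at room temperature in the dark before AlphaScreen reading. Buffer was 20 mM Tris pH 7.5, 0.05% BSA, 1 mM DTT, 1 μM sorbitol-6-phosphate.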

In experiment [1], `CSc1ccccc1C(NS(=O)(=O)c1ccc2c(c1)OCCCO2)c1cc2cccnc2s1` (racemic) [Example 48, N-((2-(methylsulfanyl)phenyl)(thieno[2,3-b]pyridin-2-yl)methyl)-3,4-dihydro-2H-1,5-benzodioxepine-7-sulfonamide] registered an EC50 of 0.022 µM. Further, the IC50 in experiment [2] came to 0.01 µM.

Consider `Cc1ccccc1C(NS(=O)(=O)c1ccc2c(c1)OCCCO2)c1oc2ccccc2c1C` (racemic) [Example 45, N-((3-methyl-1-benzofuran-2-yl)(2-methylphenyl)methyl)-3,4-dihydro-2H-1,5-benzodioxepine-7-sulfonamide], for which, in experiment [1], a half-maximal effect (EC50) was put at 2 µM. The IC50 in experiment [2] came to 1.7 µM.

`O=S(=O)(NC(c1ccccc1)c1ccc2ccccc2c1)c1ccc2c(c1)OCCCO2` (racemic) [Example 55, N-(2-naphthalenyl(phenyl)methyl)-3,4-dihydro-2H-1,5-benzo dioxepine-7-sulfonamide]: the EC50 in experiment [1] turned out to be 0.24 µM. For the same compound, the IC50 in experiment [2] amounted to 0.86 µM.

`COc1ccccc1[C@H](NS(=O)(=O)c1ccc2c(c1)OCCCO2)c1cc2ccccc2o1` (single isomer, unassigned) [Example 17 Peak #1] gave an EC50 in experiment [1] of 6.1 µM. In experiment [2], the IC50 turned out to be 1.2 µM.

`COc1ccccc1C(NS(=O)(=O)c1ccc2c(c1)OCCCO2)c1cc2ccccc2o1` (racemic) [Example 17, N-(1-benzofuran-2-yl(2-methoxyphenyl)methyl)-3,4-dihydro-2H-1,5-benzodioxepine-7-sulfonamide] returned an EC50 in experiment [1] of 0.095 µM. For the same compound, in experiment [2], the IC50 came to 0.17 µM.

In turn, `O=S(=O)(N[C@H](c1ccccn1)c1cc2ccccc2o1)c1ccc2c(c1)OCCCO2` (single isomer, unassigned) [Example 25 Peak #2] came in with an EC50 in experiment [1] of 0.29 µM. Further, in experiment [2], the IC50 amounted to 0.21 µM.
